Patent US11752126B2, “Stable cannabinoid compositions” (Sino-German M&A Service GmbH, priority 2017, dated 2023)

Experiment: THC content over time in different stabilizing systems (FIG. 1)
Type: physicochemical
Text: In the lower data set, the initial concentration of THC is reduced to 91% at day 93 with respect to the initial concentration of THC at day 0.

CCCCCc1cc(O)c2c(c1)OC(C)(C)[C@@H]1CCC(C)=C[C@@H]21 [THC, tetrahydrocannabinol]
evolution of the relative concentration of tetrahydrocannabinol (THC) (system including 1 weight percent tocopherol, over time): nearly flat over time | relative concentration of tetrahydrocannabinol (THC) (system including no tocopherol, day 93, with respect to the initial concentration of THC at day 0): 91%
